Results on twelve compounds are retold here after PubChem BioAssay (NCI).

Among the test systems are HCC-2998 colon; KM20L2 colon; DMS 273 small cell lung; NCI-H522 lung; M14 melanoma; SR leukemia; RXF 393 renal; NCI-H226 lung; MDA-N; MOLT-4 leukemia; RPMI-8226 leukemia; MCF7 breast; BT-549 breast; T-47D breast; DU-145 prostate.
Holding throughout (experiment): NCI tumour cell line growth inhibition, 48 h

Molecules are shown by their SMILES.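 Interpolation was linear, between the two tested concentrations surrounding the appropriate level; five concentrations were tested over 48 hours in 96-well plates. GI50: concentration for 50% inhibition of growth. TGI denotes the concentration required for complete inhibition of growth.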 A value given as a limit tells only on which side of the number the result lay.

On to `CCCOC(=O)CNC(=O)OC(C)(C)C`, for which the TGI with HCC-2998 colon, in the assay on KM20L2 colon, in the assay on DMS 273 small cell lung, with NCI-H522 lung, in the assay with M14 melanoma and in the assay on SR leukemia was > 100 µM throughout. Moreover, the TGI in the assay with RXF 393 renal and in the assay with NCI-H226 lung was > 100 µM each time.

With `CCc1nc(N)nc(N)c1-c1ccc([N+](C)(C)C)cc1`, the TGI in the assay with MDA-N, with MOLT-4 leukemia, with RPMI-8226 leukemia, with MCF7 breast, with HCC-2998 colon and with BT-549 breast was > 100 µM in each case. The TGI with NCI-H522 lung, with T-47D breast, with M14 melanoma, in the assay with SR leukemia, in the assay on DU-145 prostate and with RXF 393 renal was > 100 µM throughout. For the same compound, in the assay on NCI-H226 lung, the TGI is > 100 µM.

`Nc1ccccc1N=Cc1cc2cc([N+](=O)[O-])ccc2s1`: the TGI in the assay on MDA-N is > 100 µM; with MOLT-4 leukemia it was 13.6 µM; in the assay on RPMI-8226 leukemia, 46.8 µM; in the assay with MCF7 breast, 23 µM; with HCC-2998 colon, 54.6 µM; in the assay with BT-549 breast it was 52.9 µM. The TGI was > 100 µM in the assay with NCI-H522 lung; 20.8 µM in the assay with T-47D breast; 82.8 µM in the assay on M14 melanoma; > 100 µM in the assay on SR leukemia; 36.1 µM in the assay with DU-145 prostate; 28.7 µM in the assay on RXF 393 renal.

As for `COC(C)(C)OCCN1CCN(CCN2C3=C(C=C(C(C)=O)C3)Sc3ccccc32)CC1`, the TGI with MDA-N worked out at 36.5 µM; in the assay with MOLT-4 leukemia it was 36.7 µM; in the assay with RPMI-8226 leukemia, 32.8 µM; in the assay with HCC-2998 colon it was 36.2 µM; in the assay with BT-549 breast, 44.1 µM; in the assay on NCI-H522 lung it was 33.2 µM. In addition, the TGI in the assay on T-47D breast is > 100 µM; in the assay on M14 melanoma, 40.4 µM; in the assay on SR leukemia it was 33.2 µM; with DU-145 prostate it was 68.8 µM; in the assay with RXF 393 renal, 42.2 µM; with NCI-H226 lung, 65.6 µM.

Consider `CN(C)CCNC(=O)c1cccc2ccc(-c3ccc(F)cc3)nc12`, for which the TGI in the assay with MOLT-4 leukemia was 7.03 µM; in the assay with RPMI-8226 leukemia it was 13.5 µM; in the assay with MCF7 breast, 20.5 µM; in the assay with HCC-2998 colon, 19.3 µM; with KM20L2 colon it was 20.4 µM; in the assay with DMS 273 small cell lung, 11.8 µM. The TGI was found to be 16.9 µM with NCI-H522 lung, 20.4 µM in the assay on RXF 393 renal and 11.6 µM with NCI-H226 lung.

In the case of `COc1cc(C2CC(c3cccc(Nc4ccncc4)c3)=NN2c2ccc(Cl)cc2)cc(OC)c1OC` (centres undefined), the GI50 in the assay on MCF7 breast was 1.72 µM; in the assay on HCC-2998 colon it was 1.54 µM; in the assay with T-47D breast, 1.79 µM; in the assay on DU-145 prostate, 1.78 µM; in the assay with NCI-H226 lung it was 1.66 µM. The TGI turned out to be 3.61 µM in the assay on MCF7 breast; 2.91 µM in the assay on HCC-2998 colon; 4.23 µM with T-47D breast; 3.17 µM in the assay on DU-145 prostate; 3.59 µM in the assay with NCI-H226 lung.

For the compound `CN(C)CCCn1cnc2cc(Cl)c(Cl)cc21`, the TGI in the assay on MDA-N is > 100 µM; with RPMI-8226 leukemia it was > 100 µM; in the assay on MCF7 breast it was > 100 µM; in the assay with HCC-2998 colon it was 40.6 µM; in the assay with BT-549 breast it was > 100 µM; with NCI-H522 lung, > 100 µM. Further, the TGI is > 100 µM in the assay with T-47D breast; 36.1 µM with M14 melanoma; > 100 µM with SR leukemia; > 100 µM with DU-145 prostate; > 100 µM in the assay on RXF 393 renal; > 100 µM with NCI-H226 lung.

As to `O=P1(c2ccccc2)Nc2ccccc2SSc2ccccc2N1`, the TGI with MOLT-4 leukemia was determined as 49.9 µM; with RPMI-8226 leukemia, 45.3 µM; in the assay on MCF7 breast, 37.5 µM; in the assay on HCC-2998 colon, 37.6 µM; in the assay on KM20L2 colon, 33.7 µM; with DMS 273 small cell lung it was 33.7 µM. Moreover, the TGI in the assay with NCI-H522 lung came to 29 µM; with RXF 393 renal, 34.5 µM; in the assay on NCI-H226 lung, 33.4 µM.

As for `Cc1cc(/N=C/c2ccc(F)cc2)n(-c2ccccc2)n1`, the TGI in the assay with MDA-N was > 100 µM; with MOLT-4 leukemia, > 100 µM; in the assay with RPMI-8226 leukemia, 92.8 µM; in the assay with MCF7 breast, > 100 µM; with BT-549 breast it was > 100 µM; in the assay on NCI-H522 lung, > 100 µM. Moreover, the TGI in the assay with T-47D breast, in the assay with M14 melanoma, with SR leukemia, in the assay on DU-145 prostate, in the assay with RXF 393 renal and in the assay on NCI-H226 lung was > 100 µM in each case.

As to `Cc1cc2c(cc1C(=O)c1ccc(N)cc1)OCO2`, the TGI in the assay with MDA-N is 35.1 µM; in the assay with MOLT-4 leukemia, > 100 µM; in the assay on RPMI-8226 leukemia, > 100 µM; in the assay with MCF7 breast it was 53.8 µM; in the assay on BT-549 breast, > 100 µM; in the assay with NCI-H522 lung, 54.4 µM. For the same compound, the TGI with T-47D breast, in the assay with M14 melanoma, in the assay with SR leukemia and in the assay with DU-145 prostate was > 100 µM in each case.

For the compound `O=C(Nc1ccc([N+](=O)[O-])cc1[N+](=O)[O-])C(=O)C(C(=O)c1ccc2ccccc2c1)C1OC(=O)c2ccccc21` (centres undefined), the TGI in the assay on MOLT-4 leukemia was determined as 62.2 µM; in the assay on RPMI-8226 leukemia it was 68.6 µM; with HCC-2998 colon, 25 µM; in the assay with KM20L2 colon, 61.9 µM; in the assay on DMS 273 small cell lung, 61.4 µM; in the assay on NCI-H522 lung, 22.8 µM. In addition, the TGI with M14 melanoma came to 30.3 µM; in the assay on SR leukemia, 16.7 µM; in the assay with RXF 393 renal, 27.3 µM; with NCI-H226 lung, 9.48 µM.

Consider `FC(F)(F)c1ccc2c(c1)nc(-c1ccc(Cl)cc1)n2CC1CCCN2CCCCC12` (centres undefined), for which the TGI in the assay with MDA-N was 29.9 µM; with MOLT-4 leukemia, 13 µM; in the assay with MCF7 breast, 29.8 µM; with HCC-2998 colon, 26.7 µM; with BT-549 breast, 27.9 µM; in the assay on NCI-H522 lung it was 26.5 µM. Further, the TGI in the assay on T-47D breast is 39.8 µM; in the assay on M14 melanoma, 28 µM; in the assay on SR leukemia, 33.8 µM; in the assay with DU-145 prostate it was 30.4 µM; with RXF 393 renal it was 30.1 µM; with NCI-H226 lung, 31.4 µM.
